Literature values in US20090264528A1, “SERINE PALMITOYLCOA TRANSFERASE (SPT) INHIBITION BY MYRIOCIN OR GENETIC DEFICIENCY DECREASES CHOLESTEROL ABSORPTION” (The Research Foundation of State University of New York, priority 2008, published 2009).

Conditions: apoE KO mice; cited from earlier work

CCCCCCCCc1ccc(CCC(N)(CO)CO)cc1 [FTY720]
plasma cholesterol levels: increases
